Key:
solubility in water = assay type: physicochemical
pH in water solution = assay type: physicochemical; details: 10% aqueous solution
urinary Trp metabolites = assay: in vivo trial: urinary tryptophan and metabolites in bladder cancer patients (HPLC in reverse phase)
Method: 24 bladder cancer patients were randomized into two groups to receive MESNA-Arginine (per os, 800 mg/daily) or placebo. In both groups 24 hours before and after administration of the drug (MESNA-Arginine, or Placebo), urinary Kynurenine (Ky), Xanthurenic acid (XA), 5-hydroxy-indoleacetic acid (5-HIAA), AA, Trp and 3-OH-AA were determined by HPLC in reverse phase (Rocchini P., Bizzari M., Pompei M; Ciani D., Panicucci M. and Gallo S. Urinary determination of Tryptophan and related metabolites through HPLC in reverse-phase. Rass. Chimi. 1:15-18, 1984.)

[1] = background statement; cited from earlier work
[2] = per os, 800 mg/daily, after 24 hours, P-0.001
[3] = per os, 800 mg/daily, after 24 hours, listed as MESNA-Arginine
[4] = per os, 800 mg/daily, after 24 hours, listed as MESNA-arginine

SMILES	solubility in water (solubility in water)	pH in 10% water solution (pH in water solution)	cerebral uptake of Trp (urinary Trp metabolites; inferred from rate excretion of 5-HIAA)	urinary tryptophan levels (urinary Trp metabolites; per os, 800 mg/daily, after 24 hours)	reduction of urinary 3-OH-anthranilic acid (urinary Trp metabolites; [2])	reduction of urinary anthranilic acid (urinary Trp metabolites; [2])	urinary 5-HIAA (urinary Trp metabolites; [3])	urinary kynurenine (Ky) (urinary Trp metabolites; [3])	urinary xanthurenic acid (XA) (urinary Trp metabolites; [3])	urinary 5-HIAA (urinary Trp metabolites; [4])	urinary kynurenine (Ky) (urinary Trp metabolites; [4])	urinary xanthurenic acid (XA) (urinary Trp metabolites; [4])	instability of the compound in the free state [1]
O=S(=O)(O)CCS [Example 2, arginine mercaptoethansulphonate]	perfect	6.7	no variations	slight reduction	-71%	-61%	no variation	no variation	no variation	substantial invariance	unchanged	unchanged	–
O=S(=O)(O)CCS [MESNA, mercaptoethansulphonic acid]	–	–	–	–	–	–	–	–	–	–	–	–	high instability

Reference: patent US5244920A, “Pharmaceutical compositions having therapeutical activity based on mercaptoethansulphonic arginine salt” (Schering Spa, priority 1985, dated 1993)
